Experimental data from the NIST ThermoML archive (doi:10.1021/acs.jced.6b00751).
Numbers after ± are expanded uncertainties.

Details: 101.33 kPa, Liquid, Vibrating tube method

Row | Structure (SMILES) | mass density (298.15 K) [kg/m3] | mass density (313.15 K) [kg/m3] | mass density (333.15 K) [kg/m3] | mass density (353.15 K) [kg/m3]
1 | CCOS(=O)(=O)[O-].CCn1cc[n+](C)c1 [1-ethyl-3-methylimidazolium ethyl sulfate] | 1234.1 ± 18 | 1219.1 ± 18 | 1199.1 ± 27 | 1170.4 ± 39
2 | CCCCn1cc[n+](C)c1.F[P-](F)(F)(F)(F)F [1-butyl-3-methylimidazolium hexafluorophosphate] | 1369.9 ± 18 | 1350.4 ± 26 | 1325.2 ± 21 | 1288.4 ± 39
